Assay: xn = mol fraction of the nth substance listed
Details: 101 kPa, Liquid; for speed of sound: Sing-around technique in a fixed-path interferometer; for mass density: Vibrating tube method

CCCCCCn1cc[n+](C)c1.F[P-](F)(F)(F)(F)F [1-hexyl-3-methylimidazolium hexafluorophosphate] + COCCO
Details | mass density [kg/m3] | speed of sound [m/s]
288.15 K, x1 = 0.0503 | 1020.76 | 1399.2
288.15 K, x1 = 0.1092 | 1067.45 | 1411
288.15 K, x1 = 0.2006 | 1121.27 | 1419.8
288.15 K, x1 = 0.3032 | 1165.23 | 1422.9
288.15 K, x1 = 0.4013 | 1197.38 | 1424.7
288.15 K, x1 = 0.5017 | 1223.62 | 1427.5
288.15 K, x1 = 0.6054 | 1245.52 | 1433.9
288.15 K, x1 = 0.7024 | 1262.69 | 1434.3
288.15 K, x1 = 0.8019 | 1277.93 | 1436.7
288.15 K, x1 = 0.9094 | 1292.27 | 1442.3
293.15 K, x1 = 0.0503 | 1016.22 | 1382.5
293.15 K, x1 = 0.1092 | 1062.97 | 1394.8
293.15 K, x1 = 0.2006 | 1116.89 | 1404.6
293.15 K, x1 = 0.3032 | 1160.9 | 1408.6
293.15 K, x1 = 0.4013 | 1193.08 | 1411.3
293.15 K, x1 = 0.5017 | 1219.44 | 1414.5
293.15 K, x1 = 0.6054 | 1241.45 | 1421.2
293.15 K, x1 = 0.7024 | 1258.71 | 1421.4
293.15 K, x1 = 0.8019 | 1273.92 | 1424
293.15 K, x1 = 0.9094 | 1288.2 | 1428.6
298.15 K, x1 = 0.0503 | 1011.72 | 1365.8
298.15 K, x1 = 0.1092 | 1058.47 | 1378.9
298.15 K, x1 = 0.2006 | 1112.46 | 1389.6
298.15 K, x1 = 0.3032 | 1156.56 | 1394.5
298.15 K, x1 = 0.4013 | 1188.79 | 1398
298.15 K, x1 = 0.5017 | 1215.23 | 1401.7
298.15 K, x1 = 0.6054 | 1237.4 | 1407.8
298.15 K, x1 = 0.7024 | 1254.67 | 1408.9
298.15 K, x1 = 0.8019 | 1269.91 | 1411.5
298.15 K, x1 = 0.9094 | 1284.2 | 1415.8
303.15 K, x1 = 0.0503 | 1007.16 | 1349.2
303.15 K, x1 = 0.1092 | 1053.96 | 1362.9
303.15 K, x1 = 0.2006 | 1108.02 | 1374.7
303.15 K, x1 = 0.3032 | 1152.21 | 1380.7
303.15 K, x1 = 0.4013 | 1184.47 | 1385.2
303.15 K, x1 = 0.5017 | 1210.98 | 1389
303.15 K, x1 = 0.6054 | 1233.3 | 1395.1
303.15 K, x1 = 0.7024 | 1250.63 | 1396.7
303.15 K, x1 = 0.8019 | 1265.91 | 1399.4
303.15 K, x1 = 0.9094 | 1280.2 | 1403.3
308.15 K, x1 = 0.0503 | 1002.49 | 1332.7
308.15 K, x1 = 0.1092 | 1049.43 | 1347.1
308.15 K, x1 = 0.2006 | 1103.58 | 1359.9
308.15 K, x1 = 0.3032 | 1147.84 | 1367.3
308.15 K, x1 = 0.4013 | 1180.37 | 1372.3
308.15 K, x1 = 0.5017 | 1206.95 | 1376.4
308.15 K, x1 = 0.6054 | 1229.34 | 1382.4
308.15 K, x1 = 0.7024 | 1246.77 | 1384.5
308.15 K, x1 = 0.8019 | 1262.04 | 1387.4
308.15 K, x1 = 0.9094 | 1276.2 | 1391.3
313.15 K, x1 = 0.0503 | 997.703 | 1316.2
313.15 K, x1 = 0.1092 | 1044.81 | 1331.4
313.15 K, x1 = 0.2006 | 1099.15 | 1345.2
313.15 K, x1 = 0.3032 | 1143.59 | 1353.7
313.15 K, x1 = 0.4013 | 1176 | 1359.4
313.15 K, x1 = 0.5017 | 1202.67 | 1364
313.15 K, x1 = 0.6054 | 1225.28 | 1370
313.15 K, x1 = 0.7024 | 1242.9 | 1372.4
313.15 K, x1 = 0.8019 | 1258.23 | 1375.7
313.15 K, x1 = 0.9094 | 1272.23 | 1379.5
318.15 K, x1 = 0.0503 | 993.086 | 1299.8
318.15 K, x1 = 0.1092 | 1040.18 | 1316
318.15 K, x1 = 0.2006 | 1094.74 | 1330.8
318.15 K, x1 = 0.3032 | 1139.13 | 1340.3
318.15 K, x1 = 0.4013 | 1171.68 | 1346.7
318.15 K, x1 = 0.5017 | 1198.47 | 1351.6
318.15 K, x1 = 0.6054 | 1221.29 | 1357.5
318.15 K, x1 = 0.7024 | 1239.06 | 1360.5
318.15 K, x1 = 0.8019 | 1254.4 | 1364.1
318.15 K, x1 = 0.9094 | 1268.47 | 1368.1
